Assay results: publication PMC7824769, “Identification of Small Molecules Blocking the Pseudomonas aeruginosa Type III Secretion System Protein PcrV” (Biomolecules, 2021)
“And” between values parts separate entries of the source, which are not always exact repeats. Equal values may be shown once.

Biological target: PcrV (Pseudomonas aeruginosa, UniProt G3XD49)
Experiment: SPR dose-response binding to immobilized PcrV (equilibrium analysis)
Conditions: SPR KD, equilibrium analysis; mean ± SD of three or more independent experiments, individual values where n < 3; 25 °C, PBST 5% DMSO
Protocol: The SPR screening was performed using the ProteOn^TM XPR36 Protein Interaction Array System (Bio-Rad Laboratories Inc., Hercules, CA, USA) with ProteOn GLH sensor chip (Bio-Rad Laboratories Inc., Hercules, CA, USA), and the results were analyzed with the ProteOn Manager software^TM (Bio-Rad Laboratories Inc., Hercules, CA, USA), Excel 2016 (Microsoft Office), and GraphPad Prism 7.04. All SPR experiments were performed at 25 °C. The multichannel module of the ProteOn system was in the vertical position during protein immobilization. The proteins were attached to the surface of a GLH sensor chip via amine coupling chemistry. A buffer scouting was performed to elucidate the optimal binding conditions of PcrV to the GLH sensor chip. First, channels 1–4 on the chip surface were activated using a 1:1 mixture of 40 mM 1-ethyl-3-(3-dimethylaminopropyl)carbodiimide hydrochloride (EDAC) (Bio-Rad Laboratories Inc., Hercules, CA, USA) and 10 mM N-hydroxysulfosuccinimide (sulfo-NHS, Bio-Rad Laboratories Inc., Hercules, CA, USA) for 300 s at 30 µL/min. Next, the proteins PcrV (33,398.6 Da, 6.37 mg/mL) was diluted in 10 mM NaOAc (pH 4, 4.5, and 5) to 0.05 mg/mL. PcrV was immobilized in channel 1–3 for 540 s at 30 µL/min. Channel 4 was flushed with 10 mM NaOAc (pH 5) for 540 s at 30 µL/min. As deactivating agent, a 1:1 mixture of 1 M ethanolamine and milli-Q filtered water was used. The deactivating solution was injected over all four channels for 300 s at 30 µL/min. Phosphate buffered saline with Tween (PBST; 10 mM phosphate buffer pH 7.4, 140 mM NaCl, 2.7 mM KCl, and 0.05% Tween 20) was used as the running buffer. The final amount of immobilized protein was measured in resonance units (RU) relative to the signal of the baseline prior activation. […] Immobilization of PcrV diluted in sodium acetate of pH 4.5 in one channel and of pH 5 in one channel were used in the beginning of the screening procedure (for plate 1–26). Since no difference was found between the two pH values, the PcrV protein was diluted in sodium acetate at pH 5 only (in two channels) from plate 27 and the rest of the screen. The immobilization procedure for the screening was performed as described above with the addition that the control protein carbonic anhydrase isoenzyme II from bovine erythrocytes (CAII, Sigma-Aldrich, article number 2522) was immobilized in one channel that was activated and deactivated as described above. CAII (1 mg/mL in PBS) was deactivated when diluted in 10 mM sodium acetate (pH 4) to 0.05 mg/mL. Immobilization level of the deactivated CAII was 18,000 RU. Deactivated CAII was used as a control protein according to the recommendations by the ProteOn manufacturer (Bio-Rad Laboratories Inc., Hercules, CA, USA). As running buffer, we employed PBS (pH 7.4, 0.05% Tween 20).
First, the PcrV protein was immobilized in two channels as described above while keeping a blank channel which was activated and deactivated as described above. The multichannel module of the ProteOn system was in horizontal position during the small molecule interaction studies. They were serially diluted to (400,) 200, 100, 50, 25, 12.5, 6.25, and (3.125); or 100, 50, 25, and 12.5 µM; or 100, 66.7, 44.4, 29.6, 19.7, and 13.2 µM in PBST (0.05% Tween 20) with a total concentration of 5% DMSO in 96-well plates. The running buffer was PBST (0.05% Tween 20) containing 5% DMSO. The analytes were injected at a flowrate of 100 µL/min, contact time was 60 s, and dissociation time was 60–120 s. Solvent correction was performed continuously during the experiments to account for bulk response of DMSO. The data was then baseline-aligned, processed by channel referencing with the blank channel, and solvent-corrected. The equilibrium dissociation constant (KD) values were determined from equilibrium analysis in the ProteOn Manager software^TM. Solubility problems frequently hampered KD determination since the small molecules could not always be dissolved in concentrations high enough to reach a plateau. […]

Chain of PcrV (G3XD49 entry or part of it): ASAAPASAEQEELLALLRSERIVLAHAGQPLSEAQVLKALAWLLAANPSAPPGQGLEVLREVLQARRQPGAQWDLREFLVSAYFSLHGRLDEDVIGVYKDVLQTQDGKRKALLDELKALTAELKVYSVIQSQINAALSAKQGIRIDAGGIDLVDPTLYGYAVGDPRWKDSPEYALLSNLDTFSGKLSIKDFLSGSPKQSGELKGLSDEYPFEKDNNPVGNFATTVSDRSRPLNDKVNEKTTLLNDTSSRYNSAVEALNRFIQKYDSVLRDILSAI

Q: For `O=C(O)CCCOc1ccc2ccc(=O)oc2c1` [Compound 11], which Kd is on record?
A: > 600 µM

Q: Which Kd does the source give for `Cc1c(Br)ccc(OCCCCC(=O)O)c1C` [Compound 31] here?
A: 120 µM and 138 µM

Q: How did the Kd turn out when `COc1ccc(Br)cc1OCCCC(=O)O` [Compound 6] was run?
A: > 600 µM

Q: `O=C(O)CCCOc1ccc(Cl)cc1` [Compound 3] was tested. Which Kd did it give?
A: > 600 µM

Q: `O=C(O)CCCOc1cccc(C(F)(F)F)c1` [Compound 9] was tested. Which Kd did it give?
A: > 600 µM

Q: For `O=C(O)CCCOc1ccc(C2CCCCC2)cc1` [Compound 15], which Kd is on record?
A: 153 µM

Q: For `Cc1cc(Br)cc(C)c1OCCCC(=O)O` [Compound 13], which Kd is on record?
A: 431 ± 110 µM

Q: `Cc1cc(C#N)cc(C)c1OCCCC(=O)O` [Compound 12] was tested. Which Kd did it give?
A: > 600 µM

Q: `O=C(O)CCCOc1ccc(I)cc1` [Compound 4] was tested. Which Kd did it give?
A: > 600 µM

Q: `O=C(O)CCCOc1cc(Cl)cc(Cl)c1` [Compound 2] was tested. Which Kd did it give?
A: < 127 µM and 102 µM and 127 µM

Q: With `O=C(O)CCCOc1ccc(Br)cc1F` [Compound 5] as the compound, how does the Kd read?
A: > 600 µM

Q: How did the Kd turn out when `Cc1c(Br)ccc(OCCCC(=O)Nc2cc(F)c(F)cc2C(=O)O)c1C` [Compound 24] was run?
A: > 600 µM

Same assay, conditions: dose-response SPR

Q: For `O=C(O)CCCOc1ccc2ccc(=O)oc2c1` [Compound 11], which “Binding to PcrV in SPR (in words)” value is on record?
A: no binding to PcrV

Q: How did the “Binding to PcrV in SPR (in words)” value turn out when `COc1ccc(Br)cc1OCCCC(=O)O` [Compound 6] was run?
A: impaired binding

Q: `O=C(O)CCCOc1ccc(Cl)cc1` [Compound 3] was tested. Which “Binding to PcrV in SPR (in words)” value did it give?
A: no binding at the examined concentrations

Q: `O=C(O)CCCOc1cccc(C(F)(F)F)c1` [Compound 9] was tested. Which “Binding to PcrV in SPR (in words)” value did it give?
A: no binding to PcrV

Q: For `Cc1cc(Br)cc(C)c1OCCCC(=O)O` [Compound 13], which “Binding to PcrV in SPR (in words)” value is on record?
A: reduced binding

Q: Which “Binding to PcrV in SPR (in words)” value does the source give for `Cc1cc(C#N)cc(C)c1OCCCC(=O)O` [Compound 12] here?
A: reduced binding

Q: Which “Binding to PcrV in SPR (in words)” value does the source give for `O=C(O)CCCOc1ccc(I)cc1` [Compound 4] here?
A: no binding at the examined concentrations

Q: For `O=C(O)CCCOc1ccc(Br)cc1F` [Compound 5], which “Binding to PcrV in SPR (in words)” value is on record?
A: no binding at the examined concentrations

Q: Which “Binding to PcrV in SPR (in words)” value does the source give for `Cc1c(Br)ccc(OCCCC(=O)Nc2cc(F)c(F)cc2C(=O)O)c1C` [Compound 24] here?
A: failed to bind PcrV

System: J774 cells infected with P. aeruginosa strain PAK
Experiment: cells
Assay type: cell-based, Pseudomonas aeruginosa
Conditions: 25-200 µM
Protocol: The cell viability assay was performed essentially as described before. J774 cells were seeded in 96-well micro-titer plates (Nunc), 100 µL/well, to a final number of 50,000 cells/well in Dulbecco’s modified Eagle’s medium (DMEM) with glutamax (Merck) supplemented with 10% fetal calf serum (FCS) and 3 µg/mL gentamicin and incubated for 16-18 h. Overnight cultures of the P. aeruginosa strains PAK and PAKpcrV [10] were grown in Luria Broth (LB) on a rotary shaker at 220 rpm at 37 °C. Prior to infection, the bacteria were diluted 1:10 in DMEM + glutamax and incubated for 1 h at 37 °C (shaking). The J774 cells were washed once with PBS, then 30 µL of DMEM with glutamax and 10% FCS supplemented with the potential binders at concentrations of 50, 100, 200, and 400 µM were added to the wells in triplicates. The infection was initiated by adding 30 µL of the diluted bacterial solutions (where the OD600 had been diluted to 0.0008) to each well to initiate infection. This infection results in a final bacterial concentration of OD600 = 0.0004 and a multiplicities of infection (MOI) of approximately 8, with final concentrations of the compounds at 25, 50, 100, and 200 µM in 60 µL of DMEM + glutamax and 5% FCS. In the primary screening, the compounds were run at one concentration (100 µM) in duplicates. As an infection control, the wild-type strain PAK with 1% DMSO was added, and as a positive control, PAKpcrV with 1% DMSO was added into four wells each. After 3 h and 30 min, 10 µL of UptiBlue Viable Cell Counting Kit (Interchime, France) was added to all wells. The infection was followed under the light microscope and the fluorescence (excitation 535 nm and emission 595 nm) was measured at 4, 5, and 6 h in a microplate reader (Synergy™ H4, Biotek). The results were calculated as percentage of living cells compared to uninfected control, where the uninfected control was set to 100% living cells and the infected control was set to 0% living cells. As a control, compounds were added to uninfected cells in a parallel experiment and viability was calculated as above to screen for cell toxicity. A compound was considered toxic if the viability was <80% of the uninfected control after 6 h of incubation and if a visual change of cell morphology was observed by microscopy. Z’ was calculated for each plate to ensure good quality throughout the screening. Only results from plates with a Z’ > 0.4 were counted. Standard deviation was calculated with Gaussian approximation when appropriate and shown as error bars in Figure 3C and Figure 4A.
The T3SS is important for P. aeruginosa infection of eukaryotic cells, and a T3SS activator mutant or a mutant lacking the T3SS tip protein PcrV are not able to infect eukaryotic cells. The macrophage cell line, J774, was infected with the wild-type P. aeruginosa strain PAK, and the potential PcrV binders were added to the wells at a final concentration of 100 µM to screen for inhibition of infection. The T3SS-mediated cytotoxic effect on the eukaryotic cells was measured by using a viability staining method (Uptiblue, Interchim), and the results were measured after 4, 5, and 6 h of infection. The pcrV-mutant (PAKpcrV), which is not able to infect macrophages due to deletion of the PcrV protein, was used as a control.

Q: For `Cc1c(Br)ccc(OCCCCC(=O)O)c1C` [Compound 31], which “Anti-virulence efficacy in the infection assay (in words)” value is on record?
A: no or modest anti-virulence activity without clear dose-response

Same assay, conditions: Pseudomonas aeruginosa, J774, compound 25 µM; uninfected control = 100%, infected control = 0%; read-out: Viability Assay (% of Uninfected Control) 25 µM

Q: `Cc1c(Br)ccc(OCCCCC(=O)O)c1C` [Compound 31] was tested. Which viability at 25 µM did it give?
A: 11%

Q: With `O=C(O)CCCOc1ccc(C2CCCCC2)cc1` [Compound 15] as the compound, how does the viability at 25 µM read?
A: 12%

Q: How did the viability at 25 µM turn out when `Cc1cc(Br)cc(C)c1OCCCC(=O)O` [Compound 13] was run?
A: 19%

Same assay, conditions: Pseudomonas aeruginosa, J774, compound 50 µM; uninfected control = 100%, infected control = 0%; read-out: Viability Assay (% of Uninfected Control) 50 µM

Q: For `Cc1c(Br)ccc(OCCCCC(=O)O)c1C` [Compound 31], which viability at 50 µM is on record?
A: 17%

Q: With `O=C(O)CCCOc1ccc(C2CCCCC2)cc1` [Compound 15] as the compound, how does the viability at 50 µM read?
A: 17%

Q: `Cc1cc(Br)cc(C)c1OCCCC(=O)O` [Compound 13] was tested. Which viability at 50 µM did it give?
A: 18%

Same assay, conditions: Pseudomonas aeruginosa, J774, compound 100 µM; uninfected control = 100%, infected control = 0%; read-out: Viability Assay (% of Uninfected Control) 100 µM

Q: Which viability at 100 µM does the source give for `Cc1c(Br)ccc(OCCCCC(=O)O)c1C` [Compound 31] here?
A: 18%

Q: For `O=C(O)CCCOc1ccc(C2CCCCC2)cc1` [Compound 15], which viability at 100 µM is on record?
A: 24%

Q: Which viability at 100 µM does the source give for `Cc1cc(Br)cc(C)c1OCCCC(=O)O` [Compound 13] here?
A: 21%

Same assay, conditions: Pseudomonas aeruginosa, J774, compound 200 µM; uninfected control = 100%, infected control = 0%

Q: How did the viability at 200 µM turn out when `Cc1c(Br)ccc(OCCCCC(=O)O)c1C` [Compound 31] was run?
A: 17%

Q: For `O=C(O)CCCOc1ccc(C2CCCCC2)cc1` [Compound 15], which viability at 200 µM is on record?
A: 17%

Q: With `Cc1cc(Br)cc(C)c1OCCCC(=O)O` [Compound 13] as the compound, how does the viability at 200 µM read?
A: 20%
